We go through 32 compounds from ChEMBL document CHEMBL5335807, “Rational design, synthesis and biological evaluation of novel HIV-1 protease inhibitors containing 2-phenylacetamide derivatives as P2 ligands with potent activity against DRV-Resistant HIV-1 variants” (Bioorg Med Chem Lett, 2024).

pEC50, pIC50: −log10 of the molar value.

The target of assay [1] is Human immunodeficiency virus type 1 protease (Human immunodeficiency virus 1, UniProt Q72874). As to the kind of experiment: Inhibition of HIV-1 protease by fluorescence resonance energy transfer analysis.
The test system of assay [2] is Human immunodeficiency virus 1. The assay is described as follows: Antiviral activity against DRV-resistant HIV-1 assessed as inhibition of viral growth by single-round infection assay. The class given is functional, organism-based. To be noted: Human immunodeficiency virus 1, DRV.
A short description of assay [3]: Resistance index, ratio of EC50 for antiviral activity against DRV-resistant HIV-1 to EC50 for antiviral activity against wild type HIV-1 NL4-3. The class given is functional, Human immunodeficiency virus 1.
The subject of assay [4] is Human immunodeficiency virus 1. The assay is described as follows: Antiviral activity against HIV-1 NL4-3 assessed as inhibition of viral growth. The class given is functional, organism-based. Particulars: Human immunodeficiency virus 1, NL4-3.

The compound `COc1ccc(S(=O)(=O)N(CC(C)C)C[C@@H](O)[C@H](Cc2ccccc2)NC(=O)Cc2ccc(OC)c(O)c2)cn1` had a pIC50 in assay [1] of 7.89.
In assay [1], `COc1ccc(S(=O)(=O)N(CC(C)C)C[C@@H](O)[C@H](Cc2ccccc2)NC(=O)Cc2ccc(O)c(O)c2)cn1` had a pIC50 of 8.54.
The same measure, in the same setting: under `COc1ccc(S(=O)(=O)N(CC(C)C)C[C@@H](O)[C@H](Cc2ccccc2)NC(=O)Cc2ccc(O)c(OC)c2)cc1` stands 7.30; under `COc1ccc(CC(=O)N[C@@H](Cc2ccccc2)[C@H](O)CN(CC(C)C)S(=O)(=O)c2ccc(N)cc2)cc1OC`, 5.99.
Regarding `COc1ccc(S(=O)(=O)N(CC(C)C)C[C@@H](O)[C@H](Cc2ccccc2)NC(=O)Cc2ccc(O)c(O)c2)cc1`, the pIC50 in assay [1] is 9.27. The pEC50 in assay [2] was 4.63; in assay [4], 5.73. For the same compound, the “Ratio EC50” value in assay [3] stood at 12.5.
With `CC(C)CN(C[C@@H](O)[C@H](Cc1ccccc1)NC(=O)Cc1ccc(O)cc1)S(=O)(=O)c1ccc(N)cc1`, the pIC50 in assay [1] was 7.49.
Still for that read-out and setting: under `COc1cc(CC(=O)N[C@@H](Cc2ccccc2)[C@H](O)CN(CC(C)C)S(=O)(=O)c2ccc(SC)cc2)ccc1O` stands 6.94; under `COc1ccc(CC(=O)N[C@@H](Cc2ccccc2)[C@H](O)CN(CC(C)C)S(=O)(=O)c2ccc(SC)cc2)cc1`, 7.07; under `COc1ccc(CC(=O)N[C@@H](Cc2ccccc2)[C@H](O)CN(CC(C)C)S(=O)(=O)c2ccc(N)cc2)cc1`, 6.42.
As for `COc1ccc(CC(=O)N[C@@H](Cc2ccccc2)[C@H](O)CN(CC(C)C)S(=O)(=O)c2ccc(SC)cc2)cc1OC`, in assay [1], the pIC50 was 6.77.
Compound `COc1ccc(S(=O)(=O)N(CC(C)C)C[C@@H](O)[C@H](Cc2ccccc2)NC(=O)Cc2ccc(O)c(OC)c2)cn1` showed a pIC50 in assay [1] of 6.77.
Still for that read-out and setting: then `COc1ccc(S(=O)(=O)N(CC(C)C)C[C@@H](O)[C@H](Cc2ccccc2)NC(=O)Cc2ccc(OC)c(O)c2)cc1`, with 8.40; and `COc1cc(CC(=O)N[C@@H](Cc2ccccc2)[C@H](O)CN(CC(C)C)S(=O)(=O)c2ccc(N)cc2)ccc1O`, with 6.42; and `COc1cccc(CC(=O)N[C@@H](Cc2ccccc2)[C@H](O)CN(CC(C)C)S(=O)(=O)c2ccc(SC)cc2)c1`, with 7.52.
With `COc1ccc(S(=O)(=O)N(CC(C)C)C[C@@H](O)[C@H](Cc2ccccc2)NC(=O)Cc2ccc(O)cc2)cc1`, the pIC50 in assay [1] is 8.65.
In assay [1], `CSc1ccc(S(=O)(=O)N(CC(C)C)C[C@@H](O)[C@H](Cc2ccccc2)NC(=O)Cc2cccc(O)c2)cc1` had a negative-log IC50 (pIC50) of 8.66. Further, the results for the pEC50 in assay [2] and in assay [4] were 5.63 and 6.03, respectively. Further, the “Ratio EC50” value in assay [3] is 2.51.
In the case of `COc1ccc(S(=O)(=O)N(CC(C)C)C[C@@H](O)[C@H](Cc2ccccc2)NC(=O)Cc2cccc(O)c2)cc1`, the pIC50 in assay [1] is 9.06. In addition, the pEC50 is 5.05 in assay [2] and 5.98 in assay [4]. Moreover, the “Ratio EC50” value in assay [3] was 8.43.
`COc1ccc(S(=O)(=O)N(CC(C)C)C[C@@H](O)[C@H](Cc2ccccc2)NC(=O)Cc2ccc(OC)c(OC)c2)cc1`: the pIC50 in assay [1] is 7.07.
The same measure, in the same setting: then `CC(C)CN(C[C@@H](O)[C@H](Cc1ccccc1)NC(=O)Cc1ccc(O)c(O)c1)S(=O)(=O)c1ccc(N)cc1`, with 8.02; and `COc1ccc(CC(=O)N[C@@H](Cc2ccccc2)[C@H](O)CN(CC(C)C)S(=O)(=O)c2ccc(OC)cc2)cc1`, with 7.68.
Compound `COc1ccc(S(=O)(=O)N(CC(C)C)C[C@@H](O)[C@H](Cc2ccccc2)NC(=O)Cc2ccc(OC)c(OC)c2)cn1` showed a pIC50 in assay [1] of 6.75.
The same measure, in the same setting: under `COc1ccc(CC(=O)N[C@@H](Cc2ccccc2)[C@H](O)CN(CC(C)C)S(=O)(=O)c2ccc(OC)nc2)cc1` stands 7.29; under `COc1cccc(CC(=O)N[C@@H](Cc2ccccc2)[C@H](O)CN(CC(C)C)S(=O)(=O)c2ccc(OC)nc2)c1`, 7.90; under `COc1cccc(CC(=O)N[C@@H](Cc2ccccc2)[C@H](O)CN(CC(C)C)S(=O)(=O)c2ccc(N)cc2)c1`, 7.45.
On the same count and under the same terms, under `COc1ccc(S(=O)(=O)N(CC(C)C)C[C@@H](O)[C@H](Cc2ccccc2)NC(=O)Cc2cccc(OC)c2)cc1` stands 8.16.
In the case of `COc1ccc(S(=O)(=O)N(CC(C)C)C[C@@H](O)[C@H](Cc2ccccc2)NC(=O)Cc2cccc(O)c2)cn1`, in assay [1], the pIC50 is 8.92. For the same compound, the figures for the pEC50 in assay [2] and in assay [4] were 5.30 and 6.02, respectively. For the same compound, in assay [3], the “Ratio EC50” value came out at 5.26.
Consider `COc1ccc(CC(=O)N[C@@H](Cc2ccccc2)[C@H](O)CN(CC(C)C)S(=O)(=O)c2ccc(N)cc2)cc1O`, for which the negative-log IC50 (pIC50) in assay [1] is 7.56.
On to `CC(C)CN(C[C@@H](O)[C@H](Cc1ccccc1)NC(=O)Cc1cccc(O)c1)S(=O)(=O)c1ccc(N)cc1`, for which the pIC50 in assay [1] was 8.26.
Take `COc1ccc(CC(=O)N[C@@H](Cc2ccccc2)[C@H](O)CN(CC(C)C)S(=O)(=O)c2ccc(SC)cc2)cc1O`: in assay [1], the pIC50 was 8.03.
`CSc1ccc(S(=O)(=O)N(CC(C)C)C[C@@H](O)[C@H](Cc2ccccc2)NC(=O)Cc2ccc(O)c(O)c2)cc1` gave a pIC50 in assay [1] of 8.64.
On the same count and under the same terms, then `CSc1ccc(S(=O)(=O)N(CC(C)C)C[C@@H](O)[C@H](Cc2ccccc2)NC(=O)Cc2ccc(O)cc2)cc1`, with 8.38; and `COc1ccc(S(=O)(=O)N(CC(C)C)C[C@@H](O)[C@H](Cc2ccccc2)NC(=O)Cc2ccc(O)cc2)cn1`, with 8.14.

A word on the pIC50: it is −log10 of the IC50, conventionally taken in molar units. A high value points to a small IC50. In general, pEC50 refers to −log10 of the EC50, conventionally taken in molar units.
